Measured values as given in patent publication US20160287672A1, “METHOD OF TREATING CHRONIC HEART FAILURE BY ADMINISTERING RELAXIN” (priority 2008, published 2016).

Tested on: patients with chronic and stable compensated congestive HF
Experiment: Open-label pilot study of IV recombinant relaxin over 24 hours in chronic heart failure patients
Assay type: in vivo, human
Conditions: for CI Change from baseline / CO Change from baseline / DBP Change from baseline / HR Change from baseline / PAP Change from baseline / PCWP Change from baseline / PVR Change from baseline / RAP Change from baseline / SBP Change from baseline / SVR Change from baseline: 8 hr, mean ± SD
Description: Overview. In this open-label study 16 patients with chronic and stable compensated congestive HF were enrolled in three dose-ascending cohorts of recombinant intravenous relaxin (10 to 960 mcg/kg/day) over 24 hours. Relaxin produced increases in cardiac index and stroke volume, and a decrease in pulmonary wedge pressure and NT-pro BNP. It improved markers of renal function, with a small rebound at the highest dose during post-infusion. […] A maximally tolerated dose was determined.
Design of Study. In this single-center, open-label study, 16 patients who fulfilled inclusion and but not exclusion criteria for chronic and stable compensated congestive HF were sequentially allocated to three ascending cohorts of intravenous (IV) relaxin. Main inclusion criteria included: Age >18 years; NYHA CHF Class II-III without restriction on etiology; left ventricular ejection fraction <35% within 6 months of enrollment; receiving established oral HF therapy expected to remain unchanged during the study period. Main exclusion criteria included: Wedge pressure <16 mmH or CI >2.5 L/min/m2; acute coronary syndrome (within 4 weeks) or recent myocardial infarction or cardiac surgery (within 6 months); AHF requiring intravenous therapy at baseline; systolic blood pressure <85 mmHg; uncorrected valvular heart disease, except for relative mitral and/or tricuspid valve insufficiency; obstructive or restrictive cardiomyopathy; recent episode of ventricular tachycardia or fibrillation (within 4 weeks); recent stroke (within 3 months); creatinine >2.0 mg/dl or serum transaminases and/or total bilirubin >2.5 times the upper limit of normal at screening visit; history of endometriosis.
The study drug was relaxin (produced by recombinant technology). Recombinant relaxin is identical to the native human hormone H2 relaxin. The dose escalation was as follows: Group A included sequential treatment for 8 hours each with dosages equivalent to 10, 30, and 100 mcg/kg/day. Group B included sequential treatment for 8 hours each with dosages equivalent to 240, 480, and 960 mcg/kg/day. Group C received 24 hours of treatment with 960 mcg/kg/day. Escalation from Group A to Group B was done after examining safety and tolerability of the doses used in Group A. Escalation from Group B to C occurred after the safety and tolerability of the highest dose in Group B (960 mcg/kg/day) was determined.
Patients were monitored in the intensive care unit for the infusion and post-infusion periods (24 hours either). Hemodynamic measurements, including CI, SVR, PCWP, SBP, RAP, and PVR, were serially performed using Swan-Ganz and arterial catheters. Likewise, clinical and laboratory monitoring was carried out serially throughout infusion and post-infusion and on Day 9 after beginning of infusion. An additional 30-day evaluation for serious adverse events was performed by phone. Endpoints included hemodynamic and neurohumoral (NT-pro BNP levels) changes from baseline, as well as monitoring of vital signs, electrocardiogram, serum chemistry, and hematology parameters throughout the study. For statistical analysis, an error probability of P<0.05 was regarded as significant. Baseline values were compared using the Kruskal-Wallis ANOVA on ranks followed by Dunn's test. Differences over time within the single groups (hemodynamics, renal parameter, and peptide levels) were analyzed with a Friedman Repeated Measures Analysis of Variance on Ranks followed by Dunn's test for comparison against the baseline.

For “relaxin: Study drug produced by recombinant technology, identical to the native human hormone H2 relaxin; peptide hormone of A and B chains”, the creatinine increases post-infusion (Day 9, after doses equivalent to 960 mcg/kg/day IV) was no more than 0.5 mg/dL, the “CI Change from baseline” value (Group A, 10 mcg/kg/d IV) was 0.08 ± 0.3 L/min/m2 and the “CO Change from baseline” value (Group A, 10 mcg/kg/d IV) was 0.13 ± 0.5 L/min. The “DBP Change from baseline” value (Group A, 10 mcg/kg/d IV) was −3.0 ± 4.2 mmHg, the “HR Change from baseline” value (Group A, 10 mcg/kg/d IV) was 3.3 ± 7.6 beats/min and the “PAP Change from baseline” value (Group A, 10 mcg/kg/d IV) was −3.75 ± 4.1 mmHg. For the same substance, the “PCWP Change from baseline” value (Group A, 10 mcg/kg/d IV) was −1.8 ± 1.9 mmHg, the “PVR Change from baseline” value (Group A, 10 mcg/kg/d IV) was −17.3 ± 60.5 dynes * sec/cm5 and the “RAP Change from baseline” value (Group A, 10 mcg/kg/d IV) was 0.8 ± 0.9 mmHg. For the same substance, the “SBP Change from baseline” value (Group A, 10 mcg/kg/d IV) was −12.5 ± 9.3 mmHg, the “SVR Change from baseline” value (Group A, 10 mcg/kg/d IV) was −143 ± 140 dynes * sec/cm5 and the “CI Change from baseline” value (Group A, 30 mcg/kg/d IV) was 0.25 ± 0.4 L/min/m2. For the same substance, the “CO Change from baseline” value (Group A, 30 mcg/kg/d IV) was 0.45 ± 0.6 L/min, the “DBP Change from baseline” value (Group A, 30 mcg/kg/d IV) was 2.5 ± 10.9 mmHg and the “HR Change from baseline” value (Group A, 30 mcg/kg/d IV) was 2.3 ± 16.2 beats/min. The “PAP Change from baseline” value (Group A, 30 mcg/kg/d IV) was −4.0 ± 5.5 mmHg, the “PCWP Change from baseline” value (Group A, 30 mcg/kg/d IV) was −5.0 ± 2.6 mmHg and the “PVR Change from baseline” value (Group A, 30 mcg/kg/d IV) was −0.5 ± 56.7 dynes * sec/cm5. The “RAP Change from baseline” value (Group A, 30 mcg/kg/d IV) was −1.0 ± 1.8 mmHg, the “SBP Change from baseline” value (Group A, 30 mcg/kg/d IV) was −5.3 ± 16.8 mmHg and the “SVR Change from baseline” value (Group A, 30 mcg/kg/d IV) was −171 ± 159 dynes * sec/cm5. The “CI Change from baseline” value (Group A, 100 mcg/kg/d IV) was 0.25 ± 0.2 L/min/m2, the “CO Change from baseline” value (Group A, 100 mcg/kg/d IV) was 0.45 ± 0.2 L/min and the “DBP Change from baseline” value (Group A, 100 mcg/kg/d IV) was −5.0 ± 3.7 mmHg. For the same substance, the “HR Change from baseline” value (Group A, 100 mcg/kg/d IV) was 0.5 ± 1.3 beats/min, the “PAP Change from baseline” value (Group A, 100 mcg/kg/d IV) was −4.5 ± 4.2 mmHg and the “PCWP Change from baseline” value (Group A, 100 mcg/kg/d IV) was −3.5 ± 3.7 mmHg. The “PVR Change from baseline” value (Group A, 100 mcg/kg/d IV) was −25.3 ± 28.9 dynes * sec/cm5, the “RAP Change from baseline” value (Group A, 100 mcg/kg/d IV) was −0.8 ± 1.2 mmHg and the “SBP Change from baseline” value (Group A, 100 mcg/kg/d IV) was −13.0 ± 8.3 mmHg. The “SVR Change from baseline” value (Group A, 100 mcg/kg/d IV) was −288 ± 92 dynes * sec/cm5, the “time course of NT-pro BNP” value (Group B) was “no change” and the “CI Change from baseline” value (Group B, 240 mcg/kg/d IV) was 0.28 ± 0.2 L/min/m2. For the same substance, the “CO Change from baseline” value (Group B, 240 mcg/kg/d IV) was 0.62 ± 0.4 L/min, the “DBP Change from baseline” value (Group B, 240 mcg/kg/d IV) was 3.0 ± 6.0 mmHg and the “HR Change from baseline” value (Group B, 240 mcg/kg/d IV) was 1.7 ± 6.7 beats/min. The “PAP Change from baseline” value (Group B, 240 mcg/kg/d IV) was −1.7 ± 1.6 mmHg, the “PCWP Change from baseline” value (Group B, 240 mcg/kg/d IV) was −1.5 ± 1.9 mmHg and the “PVR Change from baseline” value (Group B, 240 mcg/kg/d IV) was −14.8 ± 16.9 dynes * sec/cm5. The “RAP Change from baseline” value (Group B, 240 mcg/kg/d IV) was 0.3 ± 1.4 mmHg, the “SBP Change from baseline” value (Group B, 240 mcg/kg/d IV) was −2.5 ± 7.4 mmHg and the “SVR Change from baseline” value (Group B, 240 mcg/kg/d IV) was −150 ± 138 dynes * sec/cm5. For the same substance, the “CI Change from baseline” value (Group B, 480 mcg/kg/d IV) was 0.17 ± 0.3 L/min/m2, the “CO Change from baseline” value (Group B, 480 mcg/kg/d IV) was 0.33 ± 0.7 L/min and the “DBP Change from baseline” value (Group B, 480 mcg/kg/d IV) was 0.0 ± 7.2 mmHg. For the same substance, the “HR Change from baseline” value (Group B, 480 mcg/kg/d IV) was −1.8 ± 4.5 beats/min, the “PAP Change from baseline” value (Group B, 480 mcg/kg/d IV) was 1.7 ± 2.7 mmHg and the “PCWP Change from baseline” value (Group B, 480 mcg/kg/d IV) was 0.33 ± 2.6 mmHg. For the same substance, the “PVR Change from baseline” value (Group B, 480 mcg/kg/d IV) was 5.5 ± 35.2 dynes * sec/cm5, the “RAP Change from baseline” value (Group B, 480 mcg/kg/d IV) was 0.5 ± 1.1 mmHg and the “SBP Change from baseline” value (Group B, 480 mcg/kg/d IV) was 2.2 ± 5.6 mmHg. The “SVR Change from baseline” value (Group B, 480 mcg/kg/d IV) was −12 ± 219 dynes * sec/cm5.
